Reference: patent US20250333699A1, “METHOD FOR PREPARATION OF CYTOTOXIC T LYMPHOCYTES WITH BROAD TUMOUR-SPECIFIC REACTIVITY AND CHARACTERISTICS OF EARLY DIFFERENTIATION CELLS” (priority 2021, published 2025)

Test system: MAGE antigens
Experiment: Expression of MAGE antigens by RT-PCR (Q-PCR) in CD3/CD28-activated lymphocytes
Assay type: cell-based, human
Settings: 10 μM for 2 days in the presence of IL-2 (150 IU/ml); FIG. 3
Description: Expression of MAGE antigens was determined as follows. The frozen pellets of cells were thawed, and total RNA was isolated from lymphocytes using the NucleoSpin RNA Plus kit (Macherey-Nagel), and reverse transcribed using SuperScript™ IV VILO™ Master Mix with ezDNase™ Enzyme (Invitrogen) and random hexamers and oligo(dT24) primers. cDNA was amplified in a LightCycler Nano (Roche) using the FastStart Essential DNA Green Master mix (Roche) and previously described primers and conditions (Weinert et al., 2009), except primers for MAGE-A4, provided by RealTimePrimers.com. The data were normalized to GAPDH expression.
The cell suspension was transferred to a 50 ml tube, and the cell concentration was determined. At this stage the culture contains only activated lymphocytes, and upon counting in a Moxi cell counter appear as a single peak of cells with an average size of 10-11 μm. 2×10^7 cells (or all cells) were set for centrifugation. […]
5-Aza-CdR-treated cultures were harvested and centrifuged. […] After this, cells were counted, and 10×10^6 cells were mixed with 10×10^6 thawed lymphocytes, and after centrifugation, resuspended in 20 ml of lymphocyte medium and transferred to a T75 tissue culture flask, side position. […]

In the case of `Nc1ncn([C@H]2C[C@H](O)[C@@H](CO)O2)c(=O)n1` [5-aza-CdR, 5-aza-2′-deoxycytidine], the “expression of selected CT antigens of the MAGE family” value is reported as “Robust and consistent expression”.
